Data on 7 compounds can be found in patent US9440941B2, “Substituted chroman-6-yloxy-cycloalkanes and their use as pharmaceuticals” (SANOFI, priority 2013, dated 2016).

Each structure is given as a SMILES string.

The target of experiment [1] is T1, human NCX1 (Homo sapiens, UniProt P32418).
T1 construct: expressed in transfected cells
Description: Inhibition of Ca2+ influx into cells (NCX1 reverse mode), FLIPR Fluo-4 assay. The class given is cell-based. Conditions: inhibition of NCX1 in reverse mode (Ca2+ influx into cells); read-out: NCX1rv IC50. The essentials: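 Ca2+ influx via reverse-mode exchange was evoked with gramicidin (20 µM final) after 45 min compound exposure at 16 °C in stably transfected CHO cells. Fluo-4 signal (520 nm) was followed on FLIPR at 2 s intervals. Max–min fluorescence gave percentage inhibition, from which IC50 was calculated.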

The target of experiment [2] is T1, human NCX1. Description: Inhibition of Ca2+ efflux out of cells (NCX1 forward mode), FLIPR calcium assay. The class given is cell-based. Conditions: CHO cells stably expressing human NCX1; Ca2+ efflux after Ionomycin; read-out: NCX1fw IC50 (inhibition of NCX1 in forward mode). An excerpt:
The sodium/calcium exchanger NCX1 can transport calcium ions and sodium ions through the cell membrane. The transport is an exchange of Ca^2+ and Na^+ in two directions depending on membrane potential and ion gradients. At the first direction, named “forward mode” or “calcium export mode”, Ca^2+ is transported out of the cell and Na^+ is transported into the cell. At the other direction, named “reverse mode” or “calcium import mode”, the transport directions are vice versa. The effect of the compounds of the invention on NCX1 was determined in CHO cells stably expressing human NCX1 (gene symbol SLC8A1; cf. WO 2009/115238). The assay is based on the monitoring of intracellular Ca^2+ concentrations using a calcium-sensitive fluorescence dye which is detected by means of a FLIPR device (Fluorimetric Imaging Plate Reader, Molecular Devices).
Assay Technology—Forward Mode
The assay is based on the monitoring of intracellular Ca^2+ concentrations using the PBX Calcium Assay Kit from BD (Becton, Dickinson and Company) with calcium indicator dye 51-9000177BKa (BD, 640177). CHO cells expressing NCX1 were loaded with the dye, and after a preincubation period with the test compound, lonomycin (Calbiochem, 407950) was added. lonomycin is an ionophor for Ca^2+ ions mediating an increase of intracellular Ca^2+ ions. Consequently, intracellular Ca^2+ ions are exchanged against extracellular Na^+ ions (Ca^2+ efflux, forward mode). The decrease of intracellular Ca^2+ ions was detected by measuring the fluorescence of the calcium indicator dye at a wavelength of 520 nm by a FLIPR device.
Briefly, similarly as for the reverse mode, for the forward mode transport assay 18000 cells per well were seeded into a 96 well microplate (Corning COSTAR 3904) and incubated overnight in culture medium (cf. above). A total volume of 100 μl medium per well was used. For the preparation of the FLIPR assay, the culture medium was removed from the plates and 100 μl of assay buffer (133.8 mM NaCl (Sigma, S5886); 4.7 mM KCl (Sigma, P3911); 1.25 mM MgCl2 (Merck, 1.05833.0250); 3.5 mM CaCl2 (Merck, 1.02083.0250); 5 mM glucose (Sigma, G7021); 10 mM Hepes (Sigma, H4034); pH 7.4)) were added to each well in a washing step. Assay buffer was removed, and 100 μl of a solution of the test compound in assay buffer in different concentrations were added into the wells. Further, 100 μl of dye solution (0.09% (v/v) calcium indicator dye, 9.1% (v/v) signal enhancer (from PBX Calcium Assay Kit); in assay buffer) were added into each well. The plates were incubated in the dark at room temperature for 60 min. Meanwhile a 10 μM solution of lonomycin in assay buffer (additionally containing 0.05% fetal calf serum (cf. above); 4° C.) was prepared and stored in the wells of a 96 well microplate (96 well microplate, polypropylene, U-shape (Greiner Bio-One, 650201)). The fluorescence monitoring was performed at 60 measuring points with measurement intervals of 2 sec. After the fifth measuring point, 50 μl of the lonomycin solution were added to each well of the assay plate to give a final lonomycin concentration of 2 μM. For the determination of the IC50 values the minimal fluorescence value was subtracted from the maximal fluorescence value for the fifteenth to fifty-fifth measuring points. The calculation of the IC50 values via the percentage inhibitions of Ca^2+ efflux out of cells (forward mode) effected by the test compound was performed in Biost@t Speed 2.0. “NCX1fw IC50” in Table 2 means the IC50 value (in μM (micromol/liter)) for inhibition of NCX1 in forward mode.

One may read the IC50 as the concentration needed to halve the response being measured. For the compound `Cc1ccccc1C1CCc2cc(OC3CCC(C(=O)NCc4ccno4)CC3)ccc2O1` (centres unmarked) [Example 158, N-(Isoxazol-5-ylmethyl)-4-(2-o-tolyl-chroman-6-yloxy)-cyclohexanecarboxamide], the results for the IC50 in experiment [1] and in experiment [2] were 400 nM and 2200 nM, respectively.

On to `Cc1ccccc1[C@@H]1CCc2cc(O[C@H]3CC[C@H](C(=O)NCCO)CC3)ccc2O1` [Example 268, trans-4-((S)-2-o-tolyl-chroman-6-yloxy)-cyclohexanecarboxylic acid (2-hydroxy-ethyl)-amide], for which the figures for the IC50 in experiment [1] and in experiment [2] were 150 nM and 500 nM, respectively.

As to `Cc1ccccc1[C@@H]1CCc2cc(O[C@H]3CC[C@H](C(=O)NCCOP(=O)([O-])[O-])CC3)ccc2O1.[Na+].[Na+]` [Example 303, Phosphoric acid mono-(2-{[trans-4-((S)-2-o-tolyl-chroman-6-yloxy)-cyclohexanecarbonyl]-amino}-ethyl) ester disodium salt], the IC50 was determined as 100 nM in experiment [1] and 2500 nM in experiment [2].

As for `Cc1ccccc1C1CCc2cc(OC3CCC(NCc4c(C)nn(C)c4C)CC3)ccc2O1` (centres unmarked) [Example 177, 4-(2-o-Tolyl-chroman-6-yloxy)-N-(1,3,5-trimethylpyrazol-4-ylmethyl)-cyclohexylamine], the IC50 turned out to be 3200 nM in experiment [1] and 200 nM in experiment [2].

For the compound `O=C(N[C@H]1CC[C@H](Oc2ccc3c(c2)CCC(c2ccccc2)O3)CC1)[C@@H]1CCCN1` (stereo partly drawn) [Example 180, (S)—N-[trans-4-(2-Phenyl-chroman-6-yloxy)-cyclohexyl]-pyrrolidine-2-carboxamide], the IC50 in experiment [1] came to 800 nM; in experiment [2], 10000 nM.

On to `Cc1ccccc1C1CCc2cc(O[C@H]3CC[C@H](N)CC3)ccc2O1.Cl` (stereo partly drawn) [Example 156, trans-4-(2-o-Tolyl-chroman-6-yloxy)-cyclohexylamine], for which the figures for the IC50 in experiment [1] and in experiment [2] were 600 nM and 1500 nM, respectively.

Regarding `NCC(=O)N[C@H]1CC[C@H](Oc2ccc3c(c2)CC[C@@H](c2ccccc2)O3)CC1` [Example 159, 2-Amino-N-[trans-4-((S)-2-phenyl-chroman-6-yloxy)-cyclohexyl]-acetamide], the IC50 in experiment [1] was found to be 200 nM; in experiment [2], 2500 nM.
